Consider five compounds from publication PMC11388056 (Clinical and Translational Science, 2024).

The structures appear in SMILES notation. Where two headings read alike, the source gives them in different places. Marks after values point to notes of the source that are not given here. Bounds are passed on as bounds.

A short description of series [1]: clinical. To be noted: human, plasma, oral, geometric mean (geometric CV%), n = 20.
The conditions of series [2]: for digoxin CL/F: arithmetic mean ± SD.
For series [3] the following is noted: participants with advanced solid tumors; cited from earlier work.
The conditions of series [4]: cited from earlier work.
For series [5] the following is noted: cited from earlier work. This is another data set of the same source.
The nature of series [6]: clinical. The settings on record: human, plasma, 20 mg.
For series [7] the following is noted: for futibatinib CL/F: arithmetic mean ± SD.
Series [8] in a line: Safety evaluation. The class given is in vivo, human (healthy adults). The settings on record: part 1, treatments pooled.
A further series concerns P‐glycoprotein (P‐gp). To be noted: in vitro; cited from earlier work.
For series [9] the following is noted: with itraconazole; cited from earlier work.
The nature of series [10]: Safety evaluation. The class given is in vivo, human (healthy adults). The settings on record: part 2; of a total of 27 TEAEs.
Series [11] is described as follows: Phase I DDI study part 1: plasma rosuvastatin PK with and without futibatinib. It counts as in vivo, human (healthy adults).
[12] abbreviates: digoxin + rosuvastatin, without futibatinib, median (min, max).
Where [13] appears, read: quinidine coadministration vs. futibatinib alone.
Setting [14] is: after coadministration with futibatinib vs. rosuvastatin plus digoxin.
Setting [15] is: digoxin + rosuvastatin, without futibatinib, arithmetic mean ± SD, 18 participants.

In the case of `C[C@H]1O[C@@H](O[C@H]2[C@@H](O)C[C@H](O[C@H]3[C@@H](O)C[C@H](O[C@H]4CC[C@@]5(C)[C@H](CC[C@@H]6[C@@H]5C[C@@H](O)[C@]5(C)[C@@H](C7=CC(=O)OC7)CC[C@]65O)C4)O[C@@H]3C)O[C@@H]2C)C[C@H](O)[C@@H]1O` [digoxin], the AUC(0-inf) in “clinical [1]” (digoxin AUCinf, digoxin + rosuvastatin, without futibatinib) was determined as 17.7 ng·h/mL. Also, the Cmax in “clinical [1]” (digoxin C max, digoxin + rosuvastatin with futibatinib 20 mg once daily) worked out at 0.953 ng/mL. Also, the “digoxin CL/F” value in [2] (digoxin + rosuvastatin with futibatinib, 19 participants) was 14.6 ± 5.4 ^a L/h. Also, in series [2] (digoxin + rosuvastatin, without futibatinib), the “digoxin CL/F” value is 14.6 ± 4.1 L/h. Further, the “digoxin T max” value in series [2] (setting [12]) is on record as 1.0 (0.67, 2.0) h. Moreover, the “mean digoxin renal clearance lower” value in [2] (digoxin administered with futibatinib vs. without) is listed as 13%. For the same compound, the “delay of median digoxin T max” value in series [2] (following digoxin, rosuvastatin and futibatinib vs. without futibatinib) is ~ 0.3 h. The “difference in digoxin C max and AUC” value in series [2] (with and without futibatinib) is given as less than 20%. In addition, in series [2] (with vs. without futibatinib), the “digoxin AUC0–120 GMR (90% CI)” value is given as 103.9 (94.5–114.2) %, the “digoxin AUCinf GMR (90% CI)” value was 100.2 (90.8–110.5) %, the “digoxin C max GMR (90% CI)” value is reported as 95.1 (81.1–111.5) % and the “digoxin CLr GMR (90% CI)” value is 87.1 (80.8–93.9) %.

`C=CC(=O)N1CC[C@H](n2nc(C#Cc3cc(OC)cc(OC)c3)c3c(N)ncnc32)C1` [futibatinib]: in series [3], the “terminal elimination half‐life (t ½)” value is on record as “approximately 3 h”. Further, the futibatinib exposure increased in series [4] (coadministered with itraconazole (dual P‐gp and CYP3A inhibitor)) was 41%–51%. In series [4] (coadministered with rifampin (dual P‐gp and CYP3A inducer)), the futibatinib exposure decreased is given as 53%–64%. In addition, the “difference in futibatinib exposure” value in series [5] (administered with or without lansoprazole) is listed as “no significant differences”. Further, the futibatinib bioavailability lower in [5] (fed versus fasted conditions, healthy participants) is 11.2%. Moreover, in “clinical [6]” (oral), the Vd/F was 132 ± 72.2 L and the half-life was 2.5 ± 0.83 h. The compound also had an AUC(0-inf) in the series “clinical [6]” (oral, futibatinib AUCinf, futibatinib alone, geometric mean (geometric CV%), n = 24) of 582 ng·h/mL. In the series “clinical [6]” (po), this compound returned an area under the curve AUC(0-t) of 580 ng·h/mL. The “futibatinib CL/F” value in series [7] (futibatinib + quinidine, n = 15) is 34.3 ± 13.2 L/h. Further, the “futibatinib AUCinf” value in [7] (futibatinib + quinidine, geometric mean (geometric CV%), n = 15) is recorded as 627.0 (41.6) ng*h/mL. Further, the “futibatinib CL/F” value in [7] (futibatinib alone, n = 24) was 43.1 ± 40.8 L/h. Also, in series [7] (setting [13]), the “increase in futibatinib C max and AUC” value was less than 20%; the “magnitude of increase in futibatinib AUC0–24” value was 16%; the “magnitude of increase in futibatinib AUCinf (exposure)” value is on record as 17%; the “magnitude of increase in futibatinib C max” value came out at 8%. Further, in [7] (with vs. without quinidine), the “futibatinib AUC0–24 GMR (90% CI)” value is on record as 116.4 (95.4–142.1) %, the “futibatinib AUCinf GMR (90% CI)” value is recorded as 117.0 (96.0–142.7) % and the “futibatinib C max GMR (90% CI)” value is 108.0 (90.9–128.3) %. In the series “Safety evaluation [8]”, the TEAE diarrhea is on record as 80% and the “TEAE increased blood phosphate” value came out at 75%. The “substrate of P‐gp” value in the series on P‐glycoprotein (P‐gp) is recorded as “substrate”.

Regarding `CCN1C(=O)N(c2c(F)c(OC)cc(OC)c2F)Cc2cnc3[nH]c(CN4CCOCC4)cc3c21` [pemigatinib], in series [9], the “increase in pemigatinib AUC” value was 88% and the “increase in pemigatinib C max” value is 17%.

`C=C[C@H]1C[N@@]2CC[C@H]1C[C@@H]2[C@@H](O)c1ccnc2ccc(OC)cc12` [quinidine]: the “TEAEs considered by the investigator to be related to the drug” value in the series “Safety evaluation [10]” was 22 events.

Turning to `CC(C)c1nc(N(C)S(C)(=O)=O)nc(-c2ccc(F)cc2)c1/C=C/[C@@H](O)C[C@@H](O)CC(=O)O` [rosuvastatin], in [11] (setting [14]), the “geometric mean rosuvastatin AUCs higher” value is on record as not above 18.8% and the “geometric mean rosuvastatin C max higher” value is listed as 10.2%. Besides, the “rosuvastatin CL/F” value in series [11] (digoxin + rosuvastatin with futibatinib, arithmetic mean ± SD) amounted to 207.2 ± 105.7 L/h. Further, in series [11] (setting [15]), the “rosuvastatin CL/F” value is given as 247.3 ± 167.2 ^c L/h and the “rosuvastatin t ½” value was 16.7 ± 8.5 ^c h. The “rosuvastatin T max” value in series [11] (setting [12]) is on record as 4.0 (1.0, 6.1) h. Further, the AUC(0-inf) in series [11] (human, plasma, oral, rosuvastatin AUCinf, digoxin + rosuvastatin, without futibatinib, geometric mean (geometric CV%), 18 participants) turned out to be 46.9 ng·h/mL. For the same compound, in [11] (with vs. without futibatinib), the “increase in rosuvastatin C max and AUC” value is less than 20%; the “rosuvastatin AUC0–72 GMR (90% CI)” value is reported as 118.8 (107.9–130.7) %; the “rosuvastatin AUCinf GMR (90% CI)” value was 113.5 (102.6–125.5) %; the “rosuvastatin C max GMR (90% CI)” value is 110.2 (97.3–124.8) %.

The AUC(0-inf) is total exposure, with the tail of the curve extrapolated. For orientation: Cmax means the highest concentration seen after dosing. What is called Vd/F is the volume of distribution divided by bioavailability. The term half-life denotes the time in which the quantity being followed falls by half. Low values mean fast loss, high ones slow loss. A word on the AUC(0-t): it is exposure summed from dosing to a finite time, without extrapolation to infinity. Read a low AUC(0-t) as low exposure.
